The results in this text go back to patent publication US11014895B2, “Heterocyclic urea compound, and drug composition and application thereof” (CHINA PHARMACEUTICAL UNIVERSITY, priority 2017, dated 2021).

The structures appear in SMILES notation. Some results are limits rather than exact numbers.

By IC50 is commonly meant the concentration at which inhibition is half-maximal. Read a low IC50 as greater potency.

One test concerns the target IDO1 enzyme (Homo sapiens, UniProt P14902). As to the kind of experiment: Determination of biochemical activity of IDO1 enzyme (absorbance at 320 nm). The following applies: room temperature, 3 hours. The method, boiled down: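 Absorbance at 320 nm was measured after a 3-hour room-temperature reaction of enzyme with compound. Phosphate buffer at pH 7-8 was used; inhibition was derived from the absorption ratio and fitted to IC50.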

Test [1] concerns the target T1, IDO1 enzyme in the Hela cell (Homo sapiens, UniProt P14902).
T1 construct: endogenous in cells; host or cells: HeLa cells stimulated with interferon γ (100 ng/ml)
As to the kind of experiment: Cell activity: interferon γ-stimulated Hela cells, absorbance of supernatant at 480 nm. Format: cell-based. The following applies: interferon γ 100 ng/ml, 72 hours. Summed up: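 Kynurenine-type readout: supernatant from IFN-γ-stimulated (100 ng/ml final) HeLa cells, 72 h with compound, was acid-hydrolysed with trichloroacetic acid (50 °C, 30 min). After centrifugation, 2% dimethylaminobenzaldehyde/acetic acid added and absorbance measured at 480 nm.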

T1 sequence (P14902 whole entry): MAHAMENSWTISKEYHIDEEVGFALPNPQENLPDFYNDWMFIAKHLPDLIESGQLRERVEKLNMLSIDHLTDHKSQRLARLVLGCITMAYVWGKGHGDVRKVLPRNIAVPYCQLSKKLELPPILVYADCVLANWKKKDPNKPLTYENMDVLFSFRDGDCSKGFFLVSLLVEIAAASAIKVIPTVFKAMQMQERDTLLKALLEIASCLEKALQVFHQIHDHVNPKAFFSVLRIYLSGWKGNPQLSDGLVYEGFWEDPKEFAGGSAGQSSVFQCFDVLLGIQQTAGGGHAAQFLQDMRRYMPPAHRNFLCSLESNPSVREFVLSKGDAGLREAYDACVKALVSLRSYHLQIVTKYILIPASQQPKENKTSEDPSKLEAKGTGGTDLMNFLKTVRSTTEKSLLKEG
IDO1 enzyme, sequence (P14902 whole entry): as above

On to `NC1CCC(NC(=S)Nc2nonc2/C(=N/O)Nc2ccc(F)c(Br)c2)CC1` (centres unmarked) [Embodiment 126, (Z)-1-(4-(N-(3-bromo-4-fluorophenyl)-N′-hydroxyaminoiminomethyl)-1,2,5-oxadiazole-3-substituted)-3-(4-aminocyclohexyl)thiourea], for which the IC50 (against IDO1 enzyme; in test [1]) was 0.1 to 1 µM in each case.
Regarding `N=C(Nc1conc1/C(=N/O)Nc1ccc(F)c(Cl)c1)NC1CCCCC1` [Embodiment 156, (Z)-1-(4-(N-(3-chloro-4-fluorophenyl)-N′-hydroxyaminoiminomethyl)-isoxazole-3-substituted)-4-cyclohexylguanidine], the IC50 (on IDO1 enzyme; in test [1]) was 0.1 to 1 µM in each case.
Take `CCc1cccc(NC(=O)Nc2nonc2/C(=N/O)Nc2ccc(F)c(Br)c2)c1` [Embodiment 2, (Z)-1-(4-(N-(3-bromo-4-fluorophenyl)-N′-hydroxyaminoiminomethyl)-1,2,5-oxadiazole-3-substituted)-3-(3-ethylphenyl)urea]: the IC50 (against IDO1 enzyme; in test [1]) was 0.1 to 1 µM each time.
`O=C(Nc1cc[nH]c1)Nc1nonc1/C(=N/O)Nc1ccc(F)c(Br)c1` [Embodiment 40, (Z)-1-(4-(N-(3-bromo-4-fluorophenyl)-N′-hydroxyaminoiminomethyl)-1,2,5-oxadiazole-3-substituted)-3-(1H-pyrrole-3-substituted)urea]: the IC50 (against IDO1 enzyme; in test [1]) was 0.1 to 1 µM in each case.
Turning to `O=C(Nc1cocc1/C(=N/O)Nc1ccc(F)c(Br)c1)NC1CCCC1` [Embodiment 62, (Z)-1-(4-(N-(3-bromo-4-fluorophenyl)-N′-hydroxyaminoiminomethyl)-furan-3-substituted)-3-cyclopentylurea], the IC50 (against IDO1 enzyme; in test [1]) was 0.1 to 1 µM each time.
Consider `O=C(Nc1conc1/C(=N/O)Nc1ccc(F)c(Br)c1)NC1CCC(O)CC1` (centres unmarked) [Embodiment 105], for which the IC50 (on IDO1 enzyme; in test [1]) was below 0.001 µM in each case.
Turning to `CS(=O)(=O)NCCNC(=O)Nc1nocc1/C(=N/O)Nc1ccc(F)c(Br)c1` [Embodiment 93, (Z)-1-(4-(N-(3-bromo-4-fluorophenyl)-N′-hydroxyaminoiminomethyl)-isoxazole-3-substituted)-3-(2-methamidoethyl)urea], the IC50 (on IDO1 enzyme; in test [1]) was below 0.001 µM throughout.
As for `N=C(Nc1ccccc1)Nc1nocc1/C(=N/O)Nc1ccc(F)c(Br)c1` [Embodiment 158, (Z)-1-(4-(N-(3-bromo-4-fluorophenyl)-N′-hydroxyaminoiminomethyl)-isoxazole-3-substituted)-3-phenylguanidine], the IC50 (on IDO1 enzyme; in test [1]) was 0.1 to 1 µM throughout.
Take `N=C(Nc1nonc1/C(=N/O)Nc1ccc(F)c(Br)c1)NC1CCCCC1` [Embodiment 145, (Z)-1-(4-(N-(3-bromo-4-fluorophenyl)-N′-hydroxyaminoiminomethyl)-1,2,5-oxadiazole-3-substituted)-3-cyclohexylguanidine]: the IC50 (against IDO1 enzyme; in test [1]) was below 0.001 µM throughout.
For the compound `O=C(Nc1nonc1/C(=N/O)Nc1ccc(F)c(Br)c1)N1CCOCC1` [Embodiment 49, (Z)-1-(4-(N-(3-bromo-4-fluorophenyl)-N′-hydroxyaminoiminomethyl)-1,2,5-oxadiazole-3-substituted)morpholine-1-carbamide], the IC50 (on IDO1 enzyme; in test [1]) was 0.1 to 1 µM throughout.
As to `COc1ccc(NC(=S)Nc2nonc2/C(=N/O)Nc2ccc(F)c(Br)c2)cc1` [Embodiment 115, (Z)-1-(4-(N-(3-bromo-4-fluorophenyl)-N′-hydroxyaminoiminomethyl)-1,2,5-oxadiazole-3-substituted)-3-(4-methoxyphenyl)thiourea], the half-inhibitory concentration (IC50) (on IDO1 enzyme; in test [1]) was 0.1 to 1 µM throughout.
As to `NCCCNC(=O)Nc1nocc1/C(=N/O)Nc1ccc(F)c(Br)c1` [Embodiment 88, (Z)-1-(4-(N-(3-bromo-4-fluorophenyl)-N′-hydroxyaminoiminomethyl)-isoxazole-3-substituted)-3-(3-propyl)urea], the IC50 (against IDO1 enzyme; in test [1]) was below 0.001 µM each time.
As for `O/N=C(\Nc1ccc(F)c(Br)c1)c1nonc1NC(=S)NC1CC1` [Embodiment 125, (Z)-1-(4-(N-(3-bromo-4-fluorophenyl)-N′-hydroxyaminoiminomethyl)-1,2,5-oxadiazole-3-substituted)-3-(cyclopropyl)thiourea], the IC50 (against IDO1 enzyme; in test [1]) was above 1 µM each time.
Regarding `O=C(NCCCO)Nc1conc1/C(=N/O)Nc1ccc(F)c(Br)c1` [Embodiment 109], the IC50 (against IDO1 enzyme; in test [1]) was below 0.001 µM in each case.
Consider `COc1ccc(NC(=N)Nc2nocc2/C(=N/O)Nc2ccc(F)c(Br)c2)cc1` [Embodiment 157, (Z)-1-(4-(N-(3-bromo-4-fluorophenyl)-N′-hydroxyaminoiminomethyl)-isoxazole-3-substituted)-3-(4-methoxyphenyl)guanidine], for which the IC50 (against IDO1 enzyme; in test [1]) was 0.1 to 1 µM each time.
In the case of `O=C(Nc1nocc1/C(=N/O)Nc1ccc(F)c(Br)c1)Nc1c[nH]c2ccccc12` [Embodiment 95, (Z)-1-(4-(N-(3-bromo-4-fluorophenyl)-N′-hydroxyaminoiminomethyl)-isoxazole-3-substituted)-3-(3-aminoindole)urea], the IC50 (on IDO1 enzyme; in test [1]) was 0.1 to 1 µM throughout.
For the compound `NCCNC(=S)Nc1nonc1/C(=N/O)Nc1ccc(F)c(Br)c1` [Embodiment 129, (Z)-1-(4-(N-(3-bromo-4-fluorophenyl)-N′-hydroxyaminoiminomethyl)-1,2,5-oxadiazole-3-substituted)-3-(2-aminoethyl)thiourea], the IC50 (on IDO1 enzyme; in test [1]) was 0.1 to 1 µM throughout.
On to `COc1cccc(NC(=O)Nc2nocc2/C(=N/O)Nc2ccc(F)c(Br)c2)c1` [Embodiment 80, (Z)-1-(4-(N-(3-bromo-4-fluorophenyl)-N′-hydroxyaminoiminomethyl)-isoxazole-3-substituted)-3-(3-methoxyphenyl)urea], for which the IC50 (at IDO1 enzyme; in test [1]) was above 1 µM in each case.
Take `O=C(Nc1cocc1/C(=N/O)Nc1ccc(F)c(Br)c1)NC1CCC(O)CC1` (centres unmarked) [Embodiment 63, (Z)-1-(4-(N-(3-bromo-4-fluorophenyl)-N′-hydroxyaminoiminomethyl)-furan-3-substituted)-3-(4-hydroxycyclohexyl)urea]: the IC50 (against IDO1 enzyme; in test [1]) was below 0.001 µM each time.
Consider `O=C(Nc1nonc1/C(=N/O)Nc1ccc(F)cc1)NC1CCC(O)CC1` (centres unmarked) [Embodiment 55], for which the IC50 (at IDO1 enzyme; in test [1]) was below 0.001 µM throughout.
Take `COc1ccc(NC(=S)Nc2conc2/C(=N/O)Nc2ccc(F)c(Cl)c2)cc1` [Embodiment 130, (Z)-1-(4-(N-(3-chloro-4-fluorophenyl)-N′-hydroxyaminoiminomethyl)-isoxazole-3-substituted)-4-(4-methoxyphenyl)thiourea]: the 50% inhibitory concentration (IC50) (against IDO1 enzyme; in test [1]) was 0.1 to 1 µM in each case.
`COc1ccccc1NC(=O)Nc1nonc1/C(=N/O)Nc1ccc(F)c(Br)c1` [Embodiment 3, (Z)-1-(4-(N-(3-bromo-4-fluorophenyl)-N′-hydroxyaminoiminomethyl)-1,2,5-oxadiazole-3-substituted)-3-(2-methoxyphenyl)urea]: the IC50 (against IDO1 enzyme; in test [1]) was above 1 µM in each case.
